According to ChEMBL document CHEMBL1201862, “PubChem BioAssay data set” (2004):
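Cells were grown in 96-well plates and exposed to each compound for 48 hours at five concentrations; endpoints were interpolated linearly between bracketing concentrations, or set to the highest concentration if not reached. GI50: concentration for 50% inhibition of growth.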 Active and inactive are the calls of the source. Cut-off read from the data, not from the text of the source: active = GI50 up to about 1.1 µM and inactive = higher.

Assays:
Experiment in all cases: NCI-60 cell line screen, 48 h
SF-268 = tested on: SF-268
PC-3 = tested on: PC-3
SW-620 = tested on: SW-620
HL-60 = tested on: HL-60
786-0 = tested on: 786-0
UACC-257 = tested on: UACC-257
HCT-15 = tested on: HCT-15
COLO 205 = tested on: COLO 205
CAKI-1 = tested on: CAKI-1
OVCAR-4 = tested on: OVCAR-4
LOX IMVI = tested on: LOX IMVI
Hs-578T = tested on: Hs-578T
RPMI-8226 = tested on: RPMI-8226
NCI-H226 = tested on: NCI-H226
SF-295 = tested on: SF-295
MOLT-4 = tested on: MOLT-4
A549 = tested on: A549
Malme-3M = tested on: Malme-3M
RXF 393 = tested on: RXF 393

SMILES	GI50 (SF-268)	GI50 (PC-3)	GI50 (SW-620)	GI50 (HL-60)	GI50 (786-0)	GI50 (UACC-257)	GI50 (HCT-15)	GI50 (COLO 205)	GI50 (CAKI-1)	GI50 (OVCAR-4)	GI50 (LOX IMVI)	GI50 (Hs-578T)	GI50 (RPMI-8226)	GI50 (NCI-H226)	GI50 (SF-295)	GI50 (MOLT-4)	GI50 (A549)	GI50 (Malme-3M)	GI50 (RXF 393)
O=C1CC(c2cccc(Cl)c2)Oc2ccccc21 (stereo not drawn)	22.3 µM (inactive)	15.7 µM (inactive)	18.3 µM (inactive)	11.1 µM (inactive)	16.7 µM (inactive)	16.9 µM (inactive)	15.9 µM	23.7 µM (inactive)	6.18 µM (inactive)	22.4 µM (inactive)	20 µM (inactive)	23.6 µM (inactive)	3.65 µM (inactive)	21.4 µM (inactive)	19.4 µM (inactive)	–	–	–	–
CC(C)Nc1n[nH]c(=O)n1C(C)C	> 100 µM (inactive)	> 100 µM (inactive)	> 100 µM (inactive)	> 100 µM (inactive)	> 100 µM (inactive)	> 100 µM (inactive)	> 100 µM	> 100 µM (inactive)	> 100 µM (inactive)	–	> 100 µM (inactive)	49.9 µM (inactive)	> 100 µM (inactive)	81.5 µM (inactive)	> 100 µM (inactive)	> 100 µM (inactive)	> 100 µM (inactive)	–	–
Fc1ccc(C(OCCN2CCC3CCC(C2)N3CCCc2ccccc2)c2ccc(F)cc2)cc1 (stereo not drawn)	6.62 µM (inactive)	2.98 µM (inactive)	3.64 µM (inactive)	2.12 µM (inactive)	2.41 µM (inactive)	2.92 µM (inactive)	3.76 µM	1.37 µM (inactive)	4.86 µM (inactive)	5.28 µM (inactive)	3.83 µM (inactive)	4.58 µM (inactive)	2.48 µM (inactive)	3.94 µM (inactive)	2.77 µM (inactive)	2.58 µM (inactive)	6.15 µM (inactive)	2.29 µM (inactive)	–
CN(C)c1nc(Cl)c2c(-c3ccccc3)c(-c3ccccc3)oc2n1	36 µM (inactive)	–	93.5 µM (inactive)	12.2 µM (inactive)	72.8 µM (inactive)	> 100 µM (inactive)	31.6 µM	> 100 µM (inactive)	23.2 µM (inactive)	75.7 µM (inactive)	33.3 µM (inactive)	62.1 µM (inactive)	18.9 µM (inactive)	> 100 µM (inactive)	58.1 µM (inactive)	32.2 µM (inactive)	98.2 µM (inactive)	–	19.4 µM (inactive)
CCOC(=O)/C=C(\C(=O)OCC)n1cc(C)c(=O)n(Cc2cn(COCCOC(C)=O)nn2)c1=O	14.7 µM (inactive)	20 µM (inactive)	2.94 µM (inactive)	–	5.46 µM (inactive)	17.4 µM (inactive)	6.93 µM	2.86 µM (inactive)	2.84 µM (inactive)	23.3 µM (inactive)	15.9 µM (inactive)	17.1 µM (inactive)	5.09 µM (inactive)	> 10 µM (inactive)	19.5 µM (inactive)	3.79 µM (inactive)	27.5 µM (inactive)	–	11.6 µM (inactive)
CC(=O)OCC(=O)OC[C@H](OCc1ccccc1)[C@@H]1[C@H](OC(C)=O)C(=O)N1Cc1ccccc1	> 100 µM (inactive)	> 100 µM (inactive)	> 100 µM (inactive)	–	> 100 µM (inactive)	> 100 µM (inactive)	> 100 µM	> 100 µM (inactive)	–	> 100 µM (inactive)	> 100 µM (inactive)	> 100 µM (inactive)	> 100 µM (inactive)	> 100 µM (inactive)	> 100 µM (inactive)	> 100 µM (inactive)	> 100 µM (inactive)	> 100 µM (inactive)	–
CC(C)(C)CC(N)=O	> 100 µM (inactive)	> 100 µM (inactive)	> 100 µM (inactive)	> 100 µM (inactive)	> 100 µM (inactive)	> 100 µM (inactive)	> 100 µM	> 100 µM (inactive)	> 100 µM (inactive)	> 100 µM (inactive)	> 100 µM (inactive)	> 100 µM (inactive)	> 10 µM (inactive)	> 100 µM (inactive)	> 100 µM (inactive)	> 10 µM (inactive)	> 100 µM (inactive)	–	–
Cc1[nH]c(=O)nc(NCCNCCO)c1C(=O)Nc1c2ccccc2nc2ccccc12	–	> 100 µM (inactive)	> 100 µM (inactive)	> 100 µM (inactive)	> 100 µM (inactive)	> 100 µM (inactive)	> 100 µM	> 100 µM (inactive)	> 100 µM (inactive)	> 100 µM (inactive)	> 100 µM (inactive)	–	> 100 µM (inactive)	> 100 µM (inactive)	> 100 µM (inactive)	> 100 µM (inactive)	> 100 µM (inactive)	> 100 µM (inactive)	> 100 µM (inactive)
